The values that follow come from ChEMBL document CHEMBL3045057, “2-D QSAR studies of steroidal natural products oleanic acid and their semisynthetic derivatives as potent protein tyrosine phosphatase 1B inhibitors” (Med Chem Res, 2012).

The assay concerns the target T1, Tyrosine-protein phosphatase non-receptor type 1 (Homo sapiens, UniProt P18031).
T1 sequence (P18031 whole entry): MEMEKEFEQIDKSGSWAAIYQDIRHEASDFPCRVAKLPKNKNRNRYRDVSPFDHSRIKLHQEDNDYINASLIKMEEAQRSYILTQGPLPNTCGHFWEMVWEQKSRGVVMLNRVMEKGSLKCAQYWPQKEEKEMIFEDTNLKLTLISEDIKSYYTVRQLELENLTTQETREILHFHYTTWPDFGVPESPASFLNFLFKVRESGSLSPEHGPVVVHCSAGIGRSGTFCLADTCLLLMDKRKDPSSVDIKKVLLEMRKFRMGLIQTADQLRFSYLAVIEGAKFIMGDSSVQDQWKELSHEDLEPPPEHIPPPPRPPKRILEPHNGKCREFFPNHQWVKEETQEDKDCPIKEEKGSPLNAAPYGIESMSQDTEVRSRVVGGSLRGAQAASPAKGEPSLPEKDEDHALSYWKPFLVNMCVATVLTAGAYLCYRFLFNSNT
Kind of assay: Inhibition of PTP1B (unknown origin).

Turning to `CC1(C)CC[C@]2(CC(=O)NC(Cc3ccccc3Cl)C(=O)O)CC[C@]3(C)C(=CC[C@@H]4[C@@]5(C)CC[C@H](O)C(C)(C)[C@@H]5CC[C@]43C)[C@@H]2C1` (some centres not stated), the IC50 by setting is: (read-out: IC50) 560 nM; (read-out: pIC50 (converted)) 560 nM.
Regarding `CC1(C)CC[C@]2(CC(=O)NC(Cc3ccccc3)C(=O)O)CC[C@]3(C)C(=CC[C@@H]4[C@@]5(C)CC[C@H](O)C(C)(C)[C@@H]5CC[C@]43C)[C@@H]2C1` (some centres not stated), the IC50 reads like this: (read-out: IC50) 570 nM; (read-out: pIC50 (converted)) 570 nM.
On to `CC1(C)CC[C@]2(CC(=O)NC(Cc3ccc(F)cc3)C(=O)O)CC[C@]3(C)C(=CC[C@@H]4[C@@]5(C)CC[C@H](O)C(C)(C)[C@@H]5CC[C@]43C)[C@@H]2C1` (some centres not stated), for which the IC50 (read-out: IC50) stood at 570 nM and the IC50 (read-out: pIC50 (converted)) is 570 nM.
With `CC1(C)CC[C@]2(C(=O)OCCC(=O)O)CC[C@]3(C)C(=CC[C@@H]4[C@@]5(C)CC[C@H](O)C(C)(C)[C@@H]5CC[C@]43C)[C@@H]2C1`, the IC50 (read-out: IC50) stood at 2100 nM and the IC50 (read-out: pIC50 (converted)) is 2100 nM.
In the case of `CC1(C)CC[C@]2(C(=O)OCCCCCCCCCCC(=O)O)CC[C@]3(C)C(=CC[C@@H]4[C@@]5(C)CC[C@H](O)C(C)(C)[C@@H]5CC[C@]43C)[C@@H]2C1`, the IC50 runs as follows: (read-out: IC50) 720 nM; (read-out: pIC50 (converted)) 720 nM.
For the compound `CSCCC(NC(=O)C[C@]12CCC(C)(C)C[C@H]1C1=CC[C@@H]3[C@@]4(C)CC[C@H](O)C(C)(C)[C@@H]4CC[C@@]3(C)[C@]1(C)CC2)C(=O)O` (some centres not stated), the IC50 (read-out: IC50) was found to be 550 nM and the IC50 (read-out: pIC50 (converted)) was 550 nM.
In the case of `CC1(C)CC[C@]2(C(=O)O)CC[C@]3(C)C(=CC[C@@H]4[C@@]5(C)CC[C@H](Cc6ccccc6C(=O)O)C(C)(C)[C@@H]5CC[C@]43C)[C@@H]2C1`, the IC50 is 2720 nM (read-out: IC50) and 2720 nM (read-out: pIC50 (converted)).
Regarding `CC1(C)CC[C@]2(C(=O)O)CC[C@]3(C)C(=CC[C@@H]4[C@@]5(C)CC[C@H](OCc6ccccc6C(=O)O)C(C)(C)[C@@H]5CC[C@]43C)[C@@H]2C1`, the IC50 by setting is: (read-out: IC50) 4580 nM; (read-out: pIC50 (converted)) 4580 nM.
Take `CC1(C)CC[C@]2(C(=O)O)CC[C@]3(C)C(=CC[C@@H]4[C@@]5(C)CC[C@H](Cc6ccccc6)C(C)(C)[C@@H]5CC[C@]43C)[C@@H]2C1`: the IC50 was 2670 nM (read-out: IC50) and 2670 nM (read-out: pIC50 (converted)).
Regarding `CC1(C)CC[C@]2(C(=O)OCCCCC(=O)O)CC[C@]3(C)C(=CC[C@@H]4[C@@]5(C)CC[C@H](O)C(C)(C)[C@@H]5CC[C@]43C)[C@@H]2C1`, the IC50 is 1330 nM (read-out: IC50) and 1330 nM (read-out: pIC50 (converted)).
For the compound `COc1cccc(CC(NC(=O)C[C@]23CCC(C)(C)C[C@H]2C2=CC[C@@H]4[C@@]5(C)CC[C@H](O)C(C)(C)[C@@H]5CC[C@@]4(C)[C@]2(C)CC3)C(=O)O)c1OC` (some centres not stated), the IC50 was 660 nM (read-out: IC50) and 660 nM (read-out: pIC50 (converted)).
As to `CC1(C)CC[C@]2(CC(=O)NC(Cc3cccc(Cl)c3)C(=O)O)CC[C@]3(C)C(=CC[C@@H]4[C@@]5(C)CC[C@H](O)C(C)(C)[C@@H]5CC[C@]43C)[C@@H]2C1` (some centres not stated), the IC50 reads like this: (read-out: IC50) 510 nM; (read-out: pIC50 (converted)) 510 nM.
For `COc1cc(CC(NC(=O)C[C@]23CCC(C)(C)C[C@H]2C2=CC[C@@H]4[C@@]5(C)CC[C@H](O)C(C)(C)[C@@H]5CC[C@@]4(C)[C@]2(C)CC3)C(=O)O)cc(OC)c1` (some centres not stated), the IC50 reads like this: (read-out: IC50) 630 nM; (read-out: pIC50 (converted)) 630 nM.
Take `CC1(C)CC[C@]2(C(=O)OCCCCCCCCCCCCC(=O)O)CC[C@]3(C)C(=CC[C@@H]4[C@@]5(C)CC[C@H](O)C(C)(C)[C@@H]5CC[C@]43C)[C@@H]2C1`: the IC50 was 590 nM (read-out: IC50) and 590 nM (read-out: pIC50 (converted)).
Turning to `CC1(C)CC[C@]2(C(=O)OCCCCCCCCC(=O)O)CC[C@]3(C)C(=CC[C@@H]4[C@@]5(C)CC[C@H](O)C(C)(C)[C@@H]5CC[C@]43C)[C@@H]2C1`, the IC50 runs as follows: (read-out: IC50) 780 nM; (read-out: pIC50 (converted)) 780 nM.
For the compound `Cc1ccc(CC(NC(=O)C[C@]23CCC(C)(C)C[C@H]2C2=CC[C@@H]4[C@@]5(C)CC[C@H](O)C(C)(C)[C@@H]5CC[C@@]4(C)[C@]2(C)CC3)C(=O)O)cc1` (some centres not stated), the IC50 was 650 nM (read-out: IC50) and 650 nM (read-out: pIC50 (converted)).
`CC1(C)CC[C@]2(C(=O)NC(CCC(=O)O)C(=O)O)CC[C@]3(C)C(=CC[C@@H]4[C@@]5(C)CC[C@H](O)C(C)(C)[C@@H]5CC[C@]43C)[C@@H]2C1` (some centres not stated): the IC50 by setting is: (read-out: IC50) 16400 nM; (read-out: pIC50 (converted)) 16400 nM.
In the case of `CC1(C)CC[C@]2(CC(=O)NC(Cc3ccc([N+](=O)[O-])cc3)C(=O)O)CC[C@]3(C)C(=CC[C@@H]4[C@@]5(C)CC[C@H](O)C(C)(C)[C@@H]5CC[C@]43C)[C@@H]2C1` (some centres not stated), the IC50 is 450 nM (read-out: IC50) and 450 nM (read-out: pIC50 (converted)).
In the case of `CC1(C)CC[C@]2(C(=O)Nc3ccc(C(=O)O)cc3)CC[C@]3(C)C(=CC[C@@H]4[C@@]5(C)CC[C@H](O)C(C)(C)[C@@H]5CC[C@]43C)[C@@H]2C1`, the IC50 is, setting by setting: (read-out: IC50) 3090 nM; (read-out: pIC50 (converted)) 3090 nM.
Take `CC1(C)CC[C@]2(C(=O)OCCCCCCC(=O)O)CC[C@]3(C)C(=CC[C@@H]4[C@@]5(C)CC[C@H](O)C(C)(C)[C@@H]5CC[C@]43C)[C@@H]2C1`: the IC50 runs as follows: (read-out: IC50) 880 nM; (read-out: pIC50 (converted)) 880 nM.
On to `COc1ccc(CC(NC(=O)C[C@]23CCC(C)(C)C[C@H]2C2=CC[C@@H]4[C@@]5(C)CC[C@H](O)C(C)(C)[C@@H]5CC[C@@]4(C)[C@]2(C)CC3)C(=O)O)cc1OC` (some centres not stated), for which the IC50 reads like this: (read-out: IC50) 820 nM; (read-out: pIC50 (converted)) 820 nM.
On to `CC1(C)CC[C@]2(CC(=O)NC(Cc3cnc[nH]3)C(=O)O)CC[C@]3(C)C(=CC[C@@H]4[C@@]5(C)CC[C@H](O)C(C)(C)[C@@H]5CC[C@]43C)[C@@H]2C1` (some centres not stated), for which the IC50 was 4620 nM (read-out: IC50) and 4620 nM (read-out: pIC50 (converted)).
Take `COc1ccccc1CC(NC(=O)C[C@]12CCC(C)(C)C[C@H]1C1=CC[C@@H]3[C@@]4(C)CC[C@H](O)C(C)(C)[C@@H]4CC[C@@]3(C)[C@]1(C)CC2)C(=O)O` (some centres not stated): the IC50 is 530 nM (read-out: IC50) and 530 nM (read-out: pIC50 (converted)).
Consider `COc1cccc(CC(NC(=O)C[C@]23CCC(C)(C)C[C@H]2C2=CC[C@@H]4[C@@]5(C)CC[C@H](O)C(C)(C)[C@@H]5CC[C@@]4(C)[C@]2(C)CC3)C(=O)O)c1` (some centres not stated), for which the IC50 runs as follows: (read-out: IC50) 520 nM; (read-out: pIC50 (converted)) 520 nM.
In the case of `CC1(C)CC[C@]2(CC(=O)NC(CC3=CCc4ccccc43)C(=O)O)CC[C@]3(C)C(=CC[C@@H]4[C@@]5(C)CC[C@H](O)C(C)(C)[C@@H]5CC[C@]43C)[C@@H]2C1` (some centres not stated), the IC50 was 590 nM (read-out: IC50) and 590 nM (read-out: pIC50 (converted)).
`CC1(C)CC[C@]2(CC(=O)NC(Cc3ccc4c(c3)OCO4)C(=O)O)CC[C@]3(C)C(=CC[C@@H]4[C@@]5(C)CC[C@H](O)C(C)(C)[C@@H]5CC[C@]43C)[C@@H]2C1` (some centres not stated): the IC50 is 440 nM (read-out: IC50) and 440 nM (read-out: pIC50 (converted)).
On to `CC1(C)CC[C@]2(CC(=O)NC(Cc3ccc(Cl)cc3)C(=O)O)CC[C@]3(C)C(=CC[C@@H]4[C@@]5(C)CC[C@H](O)C(C)(C)[C@@H]5CC[C@]43C)[C@@H]2C1` (some centres not stated), for which the IC50 is 610 nM (read-out: IC50) and 610 nM (read-out: pIC50 (converted)).
As to `Cc1ccccc1CC(NC(=O)C[C@]12CCC(C)(C)C[C@H]1C1=CC[C@@H]3[C@@]4(C)CC[C@H](O)C(C)(C)[C@@H]4CC[C@@]3(C)[C@]1(C)CC2)C(=O)O` (some centres not stated), the IC50 was 550 nM (read-out: IC50) and 550 nM (read-out: pIC50 (converted)).
For the compound `COc1ccc(CC(NC(=O)C[C@]23CCC(C)(C)C[C@H]2C2=CC[C@@H]4[C@@]5(C)CC[C@H](O)C(C)(C)[C@@H]5CC[C@@]4(C)[C@]2(C)CC3)C(=O)O)cc1` (some centres not stated), the IC50 reads like this: (read-out: IC50) 600 nM; (read-out: pIC50 (converted)) 600 nM.
For `CC1(C)CC[C@]2(C(=O)NC(Cc3ccccc3)C(=O)O)CC[C@]3(C)C(=CC[C@@H]4[C@@]5(C)CC[C@H](O)C(C)(C)[C@@H]5CC[C@]43C)[C@@H]2C1` (some centres not stated), the IC50 is, setting by setting: (read-out: IC50) 3310 nM; (read-out: pIC50 (converted)) 3310 nM.
Consider `CC1(C)CC[C@]2(CCCCC(=O)NC(Cc3ccccc3)C(=O)O)CC[C@]3(C)C(=CC[C@@H]4[C@@]5(C)CC[C@H](OCc6ccc(C(=O)O)cc6)C(C)(C)[C@@H]5CC[C@]43C)[C@@H]2C1` (some centres not stated), for which the IC50 is, setting by setting: (read-out: IC50) 150 nM; (read-out: pIC50 (converted)) 150 nM.
